For one data set, the system named is MDA-MB-468 cells. The data set is described as follows: CCK8 assay, MDA-MB-468. It counts as cell-based, human. The note with it: CCK8, MDA-MB-468, 24 h. The method, then:
MDA-MB-231 and MDA-MB-468 cells were inoculated on 96-well plates with 5×10^3 cells per well, and then different small molecule drugs were added according to study requirements after the cell culture reached the appropriate density. Twenty-four hours after treatment, CCK-8 reagent was added to each well and incubated for 2 hours. Then, the absorbance of each well was measured at 450 nm using an enzyme-labeler to calculate the relative survival rate of cells.
In general terms: Formazan colour is commonly taken as a measure of viable cells.

The subject of data set [1] is primary TNBC cell xenograft tumors. The data set is described as follows: In vivo antitumor efficacy, primary TNBC xenograft. Also noted: species or system BALB/c nude mice. The method, then: Xenograft tumor models were established by injecting primary TNBC cells under the skin of BALB/c nude mice. Then, one week after implantation, the mice were administered with normal saline, Angoline, PMD and PMD (Angoline) respectively via tail vein injection every 3 days. Also, the tumor volume in mice was measured every three days. […] Finally, all mice were sacrificed three weeks later and xenografts were removed. […] Additionally, significant differences in tumor weight were observed among the four groups (Fig. […]). […] Thus, we performed immunofluorescence staining to analyze the expression of Ki-67 in different groups. […] Furthermore, TUNLE staining was performed to evaluate the apoptosis of tumors treated with different drugs (Fig. 5E). […] PMD(Angoline) was prepared by encapsulating Angoline into tDNAn following the assembly steps mentioned above. Tumor-bearing mice were established using primary TNBC cells obtained from patients, following the methods described in the animal assessment section. Then, those mice were intravenously administrated with saline, Angoline, PMD and PMD(Angoline) every 3 days, respectively. Meanwhile, the tumor volume and mice weight were continuously monitored every 3 days. Ultimately, the mice were sacrificed after three weeks to obtain the tumors and vital organs (heart, liver, spleen, lung and kidney). Ki-67 expression was detected by immunofluorescence to determine the tumor growth in different groups. Also, HE staining was used to determine the damage of different drugs to important organs.

Data set [2] in a line: Pharmacokinetic study, single intravenous injection. The settings on record: Sprague-Dawley, rat, in vivo. Also noted: species or system Sprague-Dawley (SD) rats. The protocol:
A pharmacokinetic (PK) study was performed to assess whether PMD could improve Angoline's systemic circulation and extend its half-life. Following a single intravenous injection of various formulations into Sprague-Dawley (SD) rats, blood samples were collected at predetermined time points and analyzed using HPLC. As illustrated in Fig. S19A and summarized in Table 1, the plasma concentration-time curves and PK parameters are presented. […] Furthermore, the data obtained from the area under the concentration-time curve (AUC) further confirmed the enhanced PK properties. Thus, the biomimetic nanodrug delivery system (PMD) confers Angoline with enhanced PK properties, attributed to its high stability and sustained drug release kinetics.

Another data set concerns MCF-10A cells. The data set is classed as cell-based, human. The protocol:
Furthermore, the toxicity and side effects of PMD (Angoline) were evaluated through a comprehensive series of experiments. Firstly, normal breast epithelial cells (MCF-10A) were used to assess drug toxicity. […] Furthermore, we tested the immune-promoting cytokines, such as TNF-α, IL-1β and IL-6.

In the next data set the test system is TNBC cells. Briefly: Cell cycle by flow cytometry. It counts as cell-based, human. The note with it: TNBC cells after Angoline treatment. The method, then:
The treated cells were digested with pancreatic enzymes and then were collected and washed with PBS. The cells were immobilized with pre-cooled 70% ethanol at 4 ℃ for 12-24 hours, and then centrifuged, washed, and suspended to ensure uniform cell dispersion. Propyridine iodide staining solution was added to each cell sample and incubated without light at 37 ℃ for 30 minutes. Subsequently, the labeled cells were subjected to cell cycle analysis using flow cytometer (Beckman Coulter, USA), and the results were processed by FlowJo software. For the apoptosis assay, 1 × 10^5 cells per sample were collected into 1.5 mL centrifuge tubes and were re-suspended with 195 μL Annexin V-FITC binding solution. Then, 5 μL Annexin V-FITC and 10 μL PI dyeing solution were added into every sample to re-suspend the cells and incubated at 20-25 °C for 20 minutes. Flow cytometry was used to detect red fluorescence at 638 nm and green fluorescence at 488 nm, and the apoptosis results were analysed by FlowJo software.
(Flow cytometry measures light scatter and fluorescence of single cells or particles in a stream.)

“Also recorded” adds a separate entry of the source.

Usually AUC(0-inf) stands for the area under the concentration-time curve extrapolated to infinity. A higher AUC(0-inf) goes with more exposure. A word on the AUC(0-t): it is the area under the concentration-time curve up to a stated or last time point. The low end stands for less exposure, the high end for more exposure. For orientation: Cmax means the maximum level reached in the sampled fluid or tissue. For orientation: MRT means a mean duration of stay, worked out from the concentration-time curve. As usually defined, the clearance is the rate of elimination divided by the concentration. A low value points to a low capacity for elimination. One may read the half-life as the time needed for the level to fall by half in the phase considered. Turning to `COc1ccc2c(c1OC)C(OC)N(C)c1c-2ccc2cc3c(cc12)OCO3` (centres unmarked) [Angoline], the “killing effect / inhibitory effect on cell viability” value in the data set with MDA-MB-468 cells is recorded as “strongest killing effect; also recorded: progressively increased with higher concentrations”. For the same compound, the “primary tumor growth (tumor volume)” value in data set [1] (tail vein injection every 3 days, three weeks) is listed as “significant suppression of the primary tumor growth”. Further, in data set [1] (tumor tissue), the “apoptosis of tumors (TUNEL staining)” value is “significantly higher apoptosis rate compared to the groups treated with saline or PMD” and the “proliferation capacity of tumor cell (Ki-67 immunofluorescence)” value is recorded as “significantly lower in the Angoline group than that in saline or PMD groups, but higher than PMD(Angoline) group”. In addition, the body weight entry in data set [1] (tumor-bearing mice, every 3 days) is reported as “significantly increased”. This compound also returned a C0 in data set [2] of 3670 ± 280 ng/mL. Further, in data set [2] (SD rats, single i.v.), the AUC(0-inf) amounted to 15400 ± 190 ng·h/mL, the AUC(0-t) is 13200 ± 320 ng·h/mL, the maximum concentration (Cmax) is 3410 ± 150 ng/mL and the MRT is 6.08 ± 0.18 h. In data set [2] (SD rats, single i.v.), this compound had a clearance of 2.29 mL/min and a half-life of 4.15 ± 0.06 h. For the same compound, in the data set on MCF-10A cells, the “toxicity toward MCF-10A cells” value was “neither Angoline nor PMD (Angoline) exhibited toxicity”. The cell cycle distribution entry in the data set on TNBC cells is “higher proportion of TNBC cells remained in S and G2 phases”.

Source of the values: PMC11791359, “A select inhibitor of MORC2 encapsulated by chimeric membranecoated DNA nanocage target alleviation TNBC progression” (Materials Today Bio, 2025).
